Data from patent US4387102A, “4-(N-(3',4'-Methylenedioxybenzylidene)-aminomethyl)cyclohex ane-1-carboxylic acid and derivatives thereof and pharmaceutical composition thereof” (Kureha Kagaku Kogyo Kabushiki Kaisha, priority 1980, dated 1983).

Tests used:
rabbit's platelets = test: Inhibition of blood platelet aggregation induced by sodium arachidonate (platelet aggregation tracer PAT 4A); format: cell-based; details: 400 micromols sodium arachidonate
Procedure: (5-1) Test for inhibition of platelet aggregation was carried out while using rabbit's platelets, an aqueous physiological saline solution of sodium 4-[N-([…]-methylenedioxybenzylidene)aminomethyl]cyclohexane-1-carboxylate and 400 micromols of sodium arachidonate as the aggregation agent in a platelet aggregation tracer PAT 4A (made by Niko Bioscience Company, Japan) as the testing apparatus.

female JCL-ICR mice = test: Acute oral toxicity test; format: in vivo, mouse; details: 3000 mg/kg, female JCL-ICR mice of five weeks
Procedure: (5-2) Acute oral toxicity test were carried out by orally administering aqueous solutions of sodium 4-[N-(3',4'-methylenedioxybenzylidene)aminomethyl]cyclohexane-1-carboxylate to groups of female JCL-ICR mice of five weeks after birth.

[1] = test system: polymorphonuclear leukocytes; test: Inhibition of migration of polymorphonuclear leukocytes to the inflammatory region (Granuloma-CMC-Pouch method); format: in vivo, rat; details: single oral dose, male Donryu rats, present compound 100 mg/kg, indomethacin 10 mg/kg (footnote)
Procedure: Tests for inhibition of migration of polymorphonuclear leukocytes to the inflammatory region due to sodium 4-[N-(3',4'-methylenedioxybenzylidene)aminomethyl]cyclohexane-1-carboxylate were carried out following the method of Granuloma-CMC-Pouch (refer to Ishikawa et al. J. Pharmaceut. Soc. Jap., Vol. 88, page 1472, 1968).
Namely, after cutting the hair on the back of male rats (Donryu, body weight: 150 g), 5 ml of air was injected subcutaneously into the hair-cut region and further, 5 ml of aqueous 2% (W/V) solution of sodium carboxymethyl cellulose (CMC) at 37° C. was injected.
Specimens of the liquid (0.5 ml, each) effused into the pouch were collected at 3, 6 and 24 hours after 2% CMC solution were injected respectively and then the number of polymorphonuclear leukocytes in the specimen was counted after staining to determine the rate of inhibition of migration of the polymorpholeukocyte as compared to the number of the polymorpholeukocytes in the specimen collected from control animal to which the aqueous CMC solution was injected after air injection.
In this test, sodium 4-[N-(3',4'-methylenedioxybenzylidene)aminomethyl]cyclohexane-1-carboxylate was orally administered as a solution in aqueous physiological saline solution at a dose of 100 mg/kg at the time of injecting the solution of CMC, and as a control, […] at the time of injecting the solution of CMC.

[2] = 3 hours of injection of CMC, control 3.5 × 10^3
[3] = 6 hours of injection of CMC, control 5.9 × 10^3
[4] = 24 hours of injection of CMC, control 14.9 × 10^3

Row | SMILES | percent of inhibition of the aggregation of the platelets by sodium arachidonate (rabbit's platelets; 500 micromols compound) | percent of inhibition of the aggregation of the platelets by sodium arachidonate (rabbit's platelets; 1000 micromols compound) | percent of inhibition of the aggregation of the platelets by sodium arachidonate (rabbit's platelets; 1500 micromols compound) | abnormality in acute oral toxicity test (female JCL-ICR mice) | R.I. (inhibitory rate of migration of polymorphonuclear leukocytes into the pouch as compared to control) ([1]; 3 hours of injection of CMC) | Number of polymorphonuclear leukocytes [1, 2] | R.I. (inhibitory rate of migration of polymorphonuclear leukocytes into the pouch as compared to control) ([1]; 6 hours of injection of CMC) | Number of polymorphonuclear leukocytes [1, 3] | R.I. (inhibitory rate of migration of polymorphonuclear leukocytes into the pouch as compared to control) ([1]; 24 hours of injection of CMC) | Number of polymorphonuclear leukocytes [1, 4]
1 | O=C([O-])C1CCC(CN=Cc2ccc3c(c2)OCO3)CC1.[Na+] (stereo not shown) [Present compound, sodium 4-[N-(3',4'-methylenedioxybenzylidene)aminomethyl]cyclohexane-1-carboxylate] | 30% | 75% | 100% | no abnormality was found | 46% | 1.9 × 10^3 Number/mm^3 | 54% | 2.7 × 10^3 Number/mm^3 | 32% | 10.1 × 10^3 Number/mm^3
2 | COc1ccc2c(c1)c(CC(=O)O)c(C)n2C(=O)c1ccc(Cl)cc1 [Indomethacin, indomethacin, reference compound] | – | – | – | – | 34% | 2.3 × 10^3 Number/mm^3 | 31% | 4.1 × 10^3 Number/mm^3 | 28% | 10.8 × 10^3 Number/mm^3
